Data published in PubChem BioAssay (NCI).
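Values below derive from 48-hour exposures of cells grown in 96-well plates, with endpoints linearly interpolated between the two concentrations bracketing the appropriate inhibition level. GI50: concentration for 50% inhibition of growth. TGI marks complete inhibition of growth.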

Assays:
Experiment in all cases: NCI-60 cell line screen, 48 h
HCC-2998 colon = tested on: HCC-2998 colon
HCT-116 colon = tested on: HCT-116 colon
HOP-62 NSCLC = tested on: HOP-62 NSCLC
KM12 colon = tested on: KM12 colon
MOLT-4 leukemia = tested on: MOLT-4 leukemia
NCI-H460 lung = tested on: NCI-H460 lung
OVCAR-5 ovarian = tested on: OVCAR-5 ovarian
SF-539 CNS = tested on: SF-539 CNS
SR leukemia = tested on: SR leukemia
SW-620 colon = tested on: SW-620 colon

Compound	TGI (HCC-2998 colon) [µM]	TGI (HCT-116 colon) [µM]	TGI (HOP-62 NSCLC) [µM]	TGI (KM12 colon) [µM]	TGI (MOLT-4 leukemia) [µM]	TGI (NCI-H460 lung) [µM]	TGI (OVCAR-5 ovarian) [µM]	TGI (SF-539 CNS) [µM]	TGI (SR leukemia) [µM]	TGI (SW-620 colon) [µM]	GI50 (HCC-2998 colon) [µM]	GI50 (HCT-116 colon) [µM]	GI50 (KM12 colon) [µM]	GI50 (MOLT-4 leukemia) [µM]	GI50 (OVCAR-5 ovarian) [µM]	GI50 (SF-539 CNS) [µM]
CCOC(=O)C1CCCCN1CCc1c[nH]c2ccccc12 (configuration not stated)	> 100	> 100	> 100	> 100	> 100	> 100	> 100	> 100	> 100	> 100						
CO[C@]1(CN2CCN3CCCC[C@@H]3C2)/C=C/C[C@H](C)[C@@H](C)S(=O)(=O)NC(=O)c2ccc3c(c2)N(C[C@@H]2CC[C@H]21)C[C@@]1(CCCc2cc(Cl)ccc21)CO3	2.73	4.79		3.25	2.1		3.8	2.72			1.4	2.01	1.73	0.198	1.93	1.39
C/C(=N\Nc1nc2ccccc2[nH]1)c1cc2ccccc2cn1	3.46	1.04		1.88	> 100	1.45	2.5	0.764	> 100	1.65						
O=C1c2ccccc2-c2[nH]c3cn[nH]c(=O)c3c21		> 100	> 100	> 100	> 100	> 100	> 100	> 100	> 100	> 100						
N#Cc1nc(C#N)n(C(=O)c2ccccc2)c1NC(=O)c1ccccc1	> 100	> 100	> 100	> 100	> 100	> 100	> 100	> 100		> 100						
C/C(Nc1ccc(Cl)cc1Cl)=C1/CCOC1=O	> 100	> 100	70.8	> 100	> 100	> 100		89.9	> 100	> 100						
O=[N+]([O-])c1ccc(C(Nc2ccccc2)c2ccc3cccnc3c2O)cc1 (configuration not stated)	97.7	> 75.3	> 100	> 100		> 60.6	> 100	21.1		> 100						
C#CCC1(C(=O)OCC)C(=O)c2ccccc2N(C)C1=O (configuration not stated)					> 100	> 100		> 100		> 100						
CC(C)OC1OC(CO)C(O)CC1n1cc(F)c(=O)[nH]c1=O (configuration not stated)	> 100	> 100		> 100		> 100	> 100	> 100		> 100						
Cc1[nH]c(=O)[nH]c(=S)c1C(=O)Nc1cccc2cc3ccccc3cc12	> 100	> 100	> 100	> 100	> 100	> 100	> 100		> 100	> 100						
CC(C)(C)OC(=O)n1cc(C2CN(O)C(=O)C23CCC(=O)N3Cc2ccccc2)c2ccccc21 (configuration not stated)		> 100	> 100	> 100	> 100	> 100	> 100	> 100	> 100	> 100						
CC(=O)Nc1cc(Nc2cc(=O)[nH]c(=O)[nH]2)ccc1C	> 100	> 100	> 100	> 100		> 100	> 100	> 100	> 100	> 100						
CC(=O)O[C@H]1CC[C@@]2(C)[C@H](CC[C@@H]3[C@@H]2CC[C@]2(C)[C@@H](c4ccc(=O)oc4)C[C@H]4O[C@]342)C1	8.88	4.63	2.06	36.8	0.556	0.878	12.2	1.72		3.1						
CN1C(=O)C(O)CC1c1cccc(C(F)(F)F)c1 (configuration not stated)	> 100	> 100	> 100	> 100	> 100	> 100	> 100	> 100		> 100						
Cc1cc2c(c(=O)n1C)SCC2	> 100	> 100	> 100	> 100	> 100	> 100	> 100		> 100	> 100						
CC1CC/C(=C\c2ccc(Cl)cc2)c2nc(N)c(C#N)c(-c3ccc(Cl)cc3)c21 (configuration not stated)	> 100	> 100	> 100	> 100	> 100		> 100	> 100	> 100	> 100						
CC(=O)CC(=O)CCC(=O)O	> 100	> 100		> 100	> 100	> 100	> 100	> 100	> 100	> 100						
c1ccc(-c2nnn(CCN3CCCCC3)n2)cc1	> 100	> 100	> 100	> 100		> 100	> 100		> 100	> 100						
CS(=O)(=O)NC12CCC(c3ccccc31)c1ccccc12		> 100	> 100	> 100	> 100	> 100	> 100	> 100	> 100	> 100						
Cc1ccc(S(=O)(=O)N(CC(O)COc2ccccc2)c2ccc(F)cc2F)cc1 (configuration not stated)	29.7		30.1	68.1	94.2	33.7	34.1	30	73.6	31.9						
N/C(=N\Nc1ccc(S(N)(=O)=O)cc1)c1cnccn1	> 100	> 100	> 100	> 100	> 100	> 100	> 100		> 100	> 100						
COC(=O)CCCC(=O)NC1=C(NCc2ccccc2)C(=O)c2ccccc2C1=O	> 100	> 100		> 100	> 100	> 100	> 100	> 100	> 100	> 100						
O=C1C=CC(=O)c2c(Cl)ccc(O)c21	> 100	23.5	> 100	> 100	23.2	> 100	> 89.3	> 56.8		31.4						
